{"source": "paper PMC11211886", "about": "(Frontiers in Pharmacology, 2024)", "key": {"[1]": {"assay": "Tissue distribution in SD rats after oral dose", "set-up": "species or system SD rat", "conditions": "in vivo", "experimental": "After blood collection, the rats were sacrificed, and 18 tissues, namely, brain, breast, skin, fat, testis, ovary, bladder, pancreas, skeletal muscle, heart, lung, kidney, liver, stomach, small intestine, colon, spleen, and spinal cord, were removed from the rats at designated time points. These tissues were washed with saline and dried with filter paper. […] (Cheongju-si, Korea). […] The weight of the collected samples was recorded. Samples were stored in a −20°C freezer until analysis."}, "CYP2C19": {"biological_target": "T1, CYP2C19 (Homo sapiens, UniProt P33261)", "T1 construct": "tissue Life Technologies (Durham, NC, USA); host or cells: human liver microsomes", "T1 sequence (P33261 whole entry, canonical isoform)": "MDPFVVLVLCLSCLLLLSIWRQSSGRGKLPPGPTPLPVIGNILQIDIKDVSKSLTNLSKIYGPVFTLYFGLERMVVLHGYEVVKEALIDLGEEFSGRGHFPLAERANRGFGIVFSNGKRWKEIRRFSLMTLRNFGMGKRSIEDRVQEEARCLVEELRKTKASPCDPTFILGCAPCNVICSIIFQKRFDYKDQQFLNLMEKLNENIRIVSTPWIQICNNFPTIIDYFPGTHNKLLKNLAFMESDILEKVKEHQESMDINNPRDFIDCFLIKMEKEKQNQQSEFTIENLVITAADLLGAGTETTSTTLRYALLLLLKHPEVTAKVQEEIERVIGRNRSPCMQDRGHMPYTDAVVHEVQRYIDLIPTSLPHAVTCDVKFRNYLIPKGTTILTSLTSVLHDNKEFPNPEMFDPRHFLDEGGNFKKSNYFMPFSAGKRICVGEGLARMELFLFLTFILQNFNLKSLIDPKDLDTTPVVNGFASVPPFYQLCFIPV", "assay": "Reversible CYP inhibition in HLM, CYP2C19 (S-mephenytoin)", "format": "in vitro ADME", "conditions": "for enzyme activity remaining: CYP2C19, HLM", "experimental": "The markers used to determine the activities of CYP isoforms were phenacetin O-deethylation for CYP1A2 (probe substrate: 50 µM phenacetin), bupropion hydroxylation for CYP2B6 (probe substrate: 70 µM bupropion), paclitaxel 6α-hydroxylation for CYP2C8 (probe substrate: 10 µM paclitaxel), diclofenac 4′-hydroxylation for CYP2C9 (probe substrate: 5 µM diclofenac), S-(+)-mephenytoin 4′-hydroxylation for CYP2C19 (probe substrate: 20 µM S-(+)-mephenytoin), dextromethorphan O-demethylation for CYP2D6 (probe substrate: 6 µM dextromethorphan), chlorzoxazone 6′-hydroxylation for CYP2E1 (probe substrate: 70 µM chlorzoxazone), and testosterone 6β-hydroxylation and midazolam 1′-hydroxylation for CYP3A4/5 (probe substrate: 45 µM testosterone and 5 µM midazolam). […] Alpha-naphthoflavone (0.04 µM), 2-phenyl-2-(1-piperidinyl)propane (5 µM), quercetin (1 µM), sulfaphenazole (0.5 µM), ticlopidine (4 µM), quinidine (0.2 µM), diethyldithiocarbamate (20 µM), and ketoconazole (0.05 µM) were used as positive inhibitors of CYP1A2, 2B6, 2C8, 2C9, 2C19, 2D6, 2E1, and 3A4, respectively. The vehicle control was prepared in the same composition as inhibitor solutions but free of inhibitors. The concentrations of probe substrates were close to Km values that were determined in-house and within the range recommended by the FDA ([Huang et al., 2007]). Reaction mixtures were incubated at 37°C for 5, 20, or 30 min, depending on the probe substrates of CYP isoforms. The reactions were terminated by adding cold acetonitrile containing IS, and the terminated incubation mixtures were centrifuged at 3,000 g for 10 min before LC-MS/MS analysis."}, "OCT2": {"biological_target": "T2, OCT2 (Homo sapiens, UniProt O15244)", "T2 sequence (O15244 1-555)": "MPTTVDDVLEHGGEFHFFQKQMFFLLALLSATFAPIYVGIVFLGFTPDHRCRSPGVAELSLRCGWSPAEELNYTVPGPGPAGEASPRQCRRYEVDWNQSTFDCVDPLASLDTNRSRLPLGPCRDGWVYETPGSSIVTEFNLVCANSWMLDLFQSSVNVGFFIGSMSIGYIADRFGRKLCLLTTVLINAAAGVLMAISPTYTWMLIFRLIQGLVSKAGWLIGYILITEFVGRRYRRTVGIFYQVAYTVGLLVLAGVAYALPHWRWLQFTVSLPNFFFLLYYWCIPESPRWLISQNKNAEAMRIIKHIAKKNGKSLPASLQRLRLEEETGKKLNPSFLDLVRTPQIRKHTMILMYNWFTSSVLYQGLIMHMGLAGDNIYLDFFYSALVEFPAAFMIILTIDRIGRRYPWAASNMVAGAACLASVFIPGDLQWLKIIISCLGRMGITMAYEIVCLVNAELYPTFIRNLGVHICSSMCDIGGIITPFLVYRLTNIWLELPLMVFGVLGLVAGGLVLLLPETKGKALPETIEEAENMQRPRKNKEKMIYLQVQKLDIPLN", "assay": "OCT2 inhibition, metformin uptake in transfected HEK293 cells", "experimental": "The pre-incubation solutions were removed, and incubation solutions containing the inhibitors and probe substrates (or transport buffer containing an equal volume of vehicle control and probe substrates) were added and incubated at 37°C for 2 min (5 min for OATP1B3). The probe substrate for OAT1 was 4-aminohippuric acid (10 μM), for OAT3 was estrone 3-sulfate (10 μM), for OCT2 was metformin (100 μM), for OATP1B1 was β-estradiol 17-(β-D-glucuronide) (5 μM), for OATP1B3 was β-estradiol 17-(β-D-glucuronide) (10 μM), and for MATE1 and MATE2-K was tetraethylammonium (10 μM). After incubation, cells were washed three times with ice-cold transport buffer (25 mM HEPES, pH 7.4, pH 8.0 for overexpressing MATE1 and MATE2-K HEK293 cells) and lysed in distilled water. The concentrations of probe substrates were determined by LC-MS/MS, and a BCA Kit (Solarbio ®Life Sciences, Beijing, China) was used to determine the protein content in the cell lysate.\nwhere C is the concentration of the drug in the cell lysate (nM), P is the protein concentration of the cell lysate (mg/mL), and T is the incubation time (minute). Uptake ratetest compound is the uptake rate of the substrate in the presence of the test compound. Uptake ratevehicle control is the uptake rate of the substrate in the presence of the vehicle control. Uptake ratepassive is the uptake rate of the substrate in the presence of the positive inhibitor at the top test concentration."}, "[2]": {"conditions": "male, ICR, mouse, in vivo, iv", "procedure": "All intravenous and oral dose formulations were analyzed by liquid chromatography coupled with tandem mass spectrometry (LC-MS/MS) to confirm test article concentration and determine formulation stability.\nAnimals had free access to food, and water was allowed ad libitum. […] The blood samples were collected with sodium heparin as an anticoagulant. The plasma samples were obtained from blood samples by centrifugation and stored at −80°C until analysis.\nA total of eighteen mice were divided into intravenous (IV) and oral (PO) administration groups, with nine animals in each group. The mice were fasted overnight with free access to water before dosing. […] After the mice were anesthetized with isoflurane, approximately 100 μL of whole blood was collected through the retro-orbital sinus and transferred to a 1.5 mL tube containing sodium heparin. The gathered blood samples were kept on ice until centrifugation. Plasma samples were harvested by centrifugation at 1,500 g for 10 min at 4°C.\nPharmacokinetic parameters were calculated by a non-compartmental method using Thermo Kinetica® (Version 5.1 SP1, Thermo Electron Corporation, Philadelphia, Pennsylvania, United States). The area under the plasma concentration–time curve from time zero to the time of the last measurable sample (AUC0-t) or the plasma concentration–time curve from time zero to infinity (AUC0-inf) was calculated using the linear trapezoidal method."}, "[3]": {"set-up": "method as in Cao et al., 2023", "conditions": "single oral 30 mg, high-fat diet, ref Cao et al., 2023, cited from earlier work"}}, "note": "“And” between values parts separate entries of the source, which are not always exact repeats. Equal entries are not always repeated. Where two headings read alike, the source gives them in different places."}
{"smiles": "C[C@H](Nc1ncnc(N)c1C#N)c1cc2ncc(Cl)n2nc1-c1ccccc1", "note": "[Amdizalisib]", "values": [{"measurement": "half-life", "setting": "[1]; SD, female rat, PO 5 mg/kg, pancreas", "result": 3.38, "unit": "h"}, {"measurement": "half-life", "setting": "[1]; SD, male rat, PO 5 mg/kg, liver", "result": 1.76, "unit": "h"}, {"measurement": "Kp", "setting": "[1]; both sexes, SD, rat, po, 5 mg/kg, exposure in the intestines versus plasma", "result": "3 to 6"}, {"measurement": "AUC(0-t)", "setting": "[1]; female, SD, rat, po, 5 mg/kg", "result": 11400, "unit": "ng·h/mL"}, {"measurement": "Cmax", "setting": "[1]; female, SD, rat, po, 5 mg/kg", "result": 993, "unit": "ng/mL"}, {"measurement": "Kp", "setting": "[1]; female, SD, rat, po, 5 mg/kg, female rat, PO 5 mg/kg, colon, read-out: AUC0-t ratio of tissue/plasma", "result": 1.52}, {"measurement": "Cmax", "setting": "[1]; female, Sprague-Dawley, rat, po, 5 mg/kg", "result": 6950, "unit": "ng/g"}, {"measurement": "AUC(0-t)", "setting": "[1]; male, SD, rat, po, 5 mg/kg", "result": 1380, "unit": "ng·h/mL"}, {"measurement": "Cmax", "setting": "[1]; male, SD, rat, po, 5 mg/kg", "result": 394, "unit": "ng/mL"}, {"measurement": "Tmax", "setting": "[1]; male, SD, rat, po, 5 mg/kg, Tmax", "result": 1, "unit": "h"}, {"measurement": "Kp", "setting": "[1]; male, SD, rat, po, 5 mg/kg, male rat, PO 5 mg/kg, bladder, read-out: AUC0-t ratio of tissue/plasma", "result": 1.08}, {"measurement": "Kp", "setting": "[1]; male, SD, rat, po, 5 mg/kg, male rat, PO 5 mg/kg, pancreas, read-out: AUC0-t ratio of tissue/plasma", "result": 3.97}, {"measurement": "Cmax", "setting": "[1]; male, Sprague-Dawley, rat, po, 5 mg/kg", "result": 5080, "unit": "ng/g"}, {"measurement": "enzyme activity remaining", "setting": "CYP2C19; 0.08 μM", "result": "97.1% and 111%"}, {"measurement": "enzyme activity remaining", "setting": "CYP2C19; 0.4 μM", "result": 105, "unit": "%"}, {"measurement": "enzyme activity remaining", "setting": "CYP2C19; 0.4 μM, listed as amdizalisib", "result": 99.5, "unit": "%"}, {"measurement": "enzyme activity remaining", "setting": "CYP2C19; 2 μM", "result": "102% and 98.0%"}, {"measurement": "enzyme activity remaining", "setting": "CYP2C19; 10 μM", "result": "96.6% and 88.1%"}, {"measurement": "enzyme activity remaining", "setting": "CYP2C19; 50 μM", "result": "68.6% and 65.9%"}, {"measurement": "IC50", "setting": "CYP2C19; HLM, reversible, without pre-incubation", "result": "> 50", "unit": "µM"}, {"measurement": "IC50", "setting": "OCT2", "result": "> 100", "unit": "µM"}, {"measurement": "calculated R value (OCT2)", "setting": "OCT2", "result": "< 1.1"}, {"measurement": "Percentage transported", "setting": "OCT2; OCT2, compound 0.3 μM", "result": 98.7, "unit": "%"}, {"measurement": "Uptake rate", "setting": "OCT2; OCT2, compound 0.3 μM", "result": "772±136", "unit": "pmol/mg protein/min"}, {"measurement": "Percentage transported", "setting": "OCT2; OCT2, compound 1 μM", "result": 93.3, "unit": "%"}, {"measurement": "Uptake rate", "setting": "OCT2; OCT2, compound 1 μM", "result": "733±47.7", "unit": "pmol/mg protein/min"}, {"measurement": "Percentage transported", "setting": "OCT2; OCT2, compound 3 μM", "result": 95.1, "unit": "%"}, {"measurement": "Uptake rate", "setting": "OCT2; OCT2, compound 3 μM", "result": "746±13.4", "unit": "pmol/mg protein/min"}, {"measurement": "Percentage transported", "setting": "OCT2; OCT2, compound 10 μM", "result": 92.7, "unit": "%"}, {"measurement": "Uptake rate", "setting": "OCT2; OCT2, compound 10 μM", "result": "728±32.8", "unit": "pmol/mg protein/min"}, {"measurement": "Percentage transported", "setting": "OCT2; OCT2, compound 30 μM", "result": 108, "unit": "%"}, {"measurement": "Uptake rate", "setting": "OCT2; OCT2, compound 30 μM", "result": "839±49.9", "unit": "pmol/mg protein/min"}, {"measurement": "Percentage transported", "setting": "OCT2; OCT2, compound 100 μM", "result": 50.8, "unit": "%"}, {"measurement": "Uptake rate", "setting": "OCT2; OCT2, compound 100 μM", "result": "429±46.2", "unit": "pmol/mg protein/min"}, {"measurement": "inhibition at 2 min, 0.3 µM", "setting": "OCT2; human, pH 7.4", "result": 1.28, "unit": "%"}, {"measurement": "inhibition at 2 min, 1 µM", "setting": "OCT2; human, pH 7.4", "result": 6.72, "unit": "%"}, {"measurement": "inhibition at 2 min, 3 µM", "setting": "OCT2; human, pH 7.4", "result": 4.92, "unit": "%"}, {"measurement": "inhibition at 2 min, 10 µM", "setting": "OCT2; human, pH 7.4", "result": 7.34, "unit": "%"}, {"measurement": "inhibition at 2 min, 30 µM", "setting": "OCT2; human, pH 7.4", "result": -8.07, "unit": "%"}, {"measurement": "inhibition at 2 min, 100 µM", "setting": "OCT2; human, pH 7.4", "result": 49.2, "unit": "%"}, {"measurement": "CL as % of the hepatic blood flow", "setting": "[2]", "result": 16.3, "unit": "%"}, {"measurement": "median Tmax", "setting": "[3]; Chinese healthy volunteers", "result": 4, "unit": "h"}, {"measurement": "effect of food on extent of oral absorption (AUC)", "setting": "[3]", "result": "no significant effect"}, {"measurement": "reduction of geometric mean of Cmax after food intake", "setting": "[3]", "result": 36, "unit": "%"}]}
